In patent US4731486A, “Hydroformylation using low volatile phosphine ligands” (Union Carbide Corporation, priority 1986, dated 1988):
Structures can show the parent of a compound that is named as a salt.

Experiments:
[1] = Batch hydroformylation of propylene in stirred autoclave (Examples 1, 2, 11, 14, 19); details: 200 ppm Rh, about 120 mole equivalents ligand, 100° C., 90 psia 1:1:1 H2:CO:C3H6; for Linear/Branched Aldehyde Mole Ratio: Texanol/Carbowax PEG-600: Li 100:0, K 9:1, Rb 8:1, Ca 20:1, Ba 7:1; for Reaction Rate (C4 aldehydes): Texanol/Carbowax PEG-600: Li 100:0, K 9:1, Rb 8:1, Cs 7:1, Ca 20:1, Ba 7:1, Sr 18:1
Protocol: A series of various rhodium complex catalyst precursor solutions consisting essentially of the solubilized reaction product of rhodium dicarbonyl acetylacetonate and various monosulfonated triphenylphosphine metal salt ligands were prepared and employed to hydroformylate propylene into C4 aldehydes in the following manner.
Each rhodium catalytic precursor solution so prepared was then employed to hydroformylate propylene in a magnetically stirred, 100 mL capacity, stainless steel autoclave which was attached to a gas manifold for introducing gases to the desired partial pressures. The autoclave was also equipped with a pressure calibrator for determining reaction pressure to ±0.01 psia. and a platinum resistance thermometer for determining reactor solution temperatures to ±0.10° C. The reactor was heated externally by two 300 watt heating bands. The reactor solution temperature was controlled by a platinum resistance sensor connected to an external proportional temperature controller for controlling the temperature of the external band heaters.
In each non-aqueous hydroformylation reaction, about 15 milliliters (about 14 grams) of the rhodium catalytic precursor solution so prepared was charged to the autoclave reactor under nitrogen and heated to the reaction temperature employed (as given in Table 1 below). The reactor was then vented down to 5 psig. and a premixed gas mixture of 1:1:1 carbon monoxide:hydrogen:propylene was introduced into the reactor via the gas manifold (partial pressures given in Table 1) and the propylene so hydroformylated.
A comparison of the catalytic activity of aqueous and non-aqueous solutions of monosulfonated triphenylphosphine sodium salt ligand promoted catalysts in hydroformylating various molecular weight alphe-olefins was determined as follows.
Both the aqueous and non-aqueous hydroformylation reactions were conducted under identical conditions with regard to temperature, rhodium and ligand concentration, hydrogen and carbon monoxide partial pressure and olefin concentration.

[2] = Continuous hydroformylation of propylene (Example 8); details: Texanol/PEG-600 8:1
[3] = Solubility of metal salt ligands in different aldehydes; assay type: physicochemical
[4] = Solubility of metal salt ligands in nonanal with added solubilizing agent; assay type: physicochemical; details: 25° C., nonanal with 1:4 CARBOWAX TPEG-900/TERGITOL NP-9
[5] = Continuous single pass hydroformylation of butene-1 (Examples 3, 4, 5, 7, 12)
Protocol: Continuous hydroformylation of butene-1 a monosulfonated triphenylphosphine metal salt ligand was conducted in the following manner.
The non-aqueous hydroformylation was conducted in a glass reactor operating in a continuous single pass butene-1 hydroformylation mode. The reactor consisted of a three-ounce pressure bottle submersed in an oil bath with a lass front for viewing. About 20-mL of a freshly prepared rhodium catalytic precursor solution was charged to the reactor with a syringe, after purging the system with nitrogen. […] After closing the reactor, the system was again purged with nitrogen and the oil bath was heated to furnish the desired hydroformylation reaction temperature. The hydroformylation reaction was conducted at a total gas pressure of about 160 psig., the partial pressures of hydrogen, carbon monoxide, and butene-1 being given in Table 3 below, the remainder being nitrogen and aldehyde product.
The flows of the feed gases (carbon monoxide, hydrogen, butene-1 and nitrogen) were controlled individually with mass flow meters and the feed gases dispersed into the precursor solution via microporous stainless steel spargers. The unreacted portion of the feed gases was stripped out with the product C5 aldehydes and the outlet gas analyzed over about 12 days of continuous operation.

[6] = Batch hydroformylation of dodecene-1 (Examples 13, 14, 18, 19); details: heptanal, 100° C., 200 ppm Rh, 60 psia 2:1 H2:CO
[7] = day 1.0, 99 °C, CO 33, H2 53, C3H6 17 psia
[8] = day 2.0, 106 °C, CO 28, H2 54, C3H6 18 psia
[9] = day 3.0, […], CO 23, H2 55, C3H6 19 psia
[10] = day 4.0, […], CO 23, H2 55, C3H6 19 psia
[11] = day 4.9, 104 °C, CO 23, H2 55, C3H6 19 psia
[12] = day 5.8, 103 °C, CO 23, H2 55, C3H6 20 psia
[13] = day 6.7, 98 °C, CO 24, H2 56, C3H6 20 psia
[14] = Texanol, day 0.8, 101 °C, CO 18, H2 48, C4H8 19
[15] = Texanol, day 4.0, 101 °C, CO 17, H2 52, C4H8 49
[16] = Texanol, day 6.0, 101 °C, CO 17, H2 52, C4H8 50
[17] = Texanol, day 6.9, 101 °C, CO 19, H2 50, C4H8 41
[18] = Texanol, day 8.0, […], CO 18, H2 56, C4H8 38
[19] = Texanol, day 9.0, […], CO 18, H2 57, C4H8 38
[20] = Texanol, day 10.0, […], CO 18, H2 57, C4H8 38
[21] = Texanol, day 10.7, […], CO 18, H2 57, C4H8 38
[22] = Texanol, day 11.6, 103 °C, CO 18, H2 57, C4H8 38
[23] = CARBOWAX PEG-600, two liquid organic layers
[24] = TERGITOL 15-S-7/Carbowax TPEG-990 (3:1)
[25] = TERGITOL 24-L-75N/CARBOWAX TPEG-990 (4:1)
[26] = Texanol/PEG-600 7:1, day 1.0, 101 °C, CO 18, H2 70, C4H8 11 psia
[27] = Texanol/PEG-600 7:1, day 1.8, 101 °C, CO 16, H2 62, C4H8 14 psia
[28] = Texanol/PEG-600 7:1, day 5.0, 101 °C, CO 12, H2 66, C4H8 19 psia
[29] = Texanol/PEG-600 7:1, day 5.9, 101 °C, CO 13, H2 66, C4H8 20 psia
[30] = Texanol/PEG-600 7:1, day 6.9, 101 °C, CO 14, H2 62, C4H8 22 psia
[31] = Texanol/PEG-600 7:1, day 7.0 (so in the source), […], CO 18, H2 62, C4H8 22 psia
[32] = Texanol/PEG-600 7:1, day 7.9, 101 °C, CO 16, H2 55, C4H8 24 psia
[33] = Texanol/PEG-600 7:1, day 9.0, […], CO 18, H2 60, C4H8 23 psia
[34] = Texanol/PEG-600 7:1, day 11.0, […], CO 19, H2 63, C4H8 21 psia
[35] = Texanol/PEG-600 7:1, day 11.7, […], CO 20, H2 63, C4H8 21 psia
[36] = Texanol/PEG-600 7:1, day 12.6, 103 °C, CO 20, H2 63, C4H8 22 psia

O=S(=O)(O)c1cccc(P(c2ccccc2)c2ccccc2)c1 [TPPMS-Rb, monosulfonated triphenylphosphine rubidium salt]
Linear/Branched Aldehyde Mole Ratio [1]: 5.6 | Reaction Rate (C4 aldehydes) [1]: 0.70 Gmoles/L/Hr | Linear/Branched Aldehyde Mole Ratio [2, 7]: 5.15 | Rate (C4 aldehydes), daily average [2, 7]: 1.01 gmoles/L/Hr | Linear/Branched Aldehyde Mole Ratio [2, 8]: 6.19 | Rate (C4 aldehydes), daily average [2, 8]: 1.24 gmoles/L/Hr | Linear/Branched Aldehyde Mole Ratio [2, 9]: 5.86 | Rate (C4 aldehydes), daily average [2, 9]: 0.68 gmoles/L/Hr | Linear/Branched Aldehyde Mole Ratio [2, 10]: 6.04 | Rate (C4 aldehydes), daily average [2, 10]: 0.58 gmoles/L/Hr | Linear/Branched Aldehyde Mole Ratio [2, 11]: 6.12 | Rate (C4 aldehydes), daily average [2, 11]: 0.58 gmoles/L/Hr | Linear/Branched Aldehyde Mole Ratio [2, 12]: 6.45 | Rate (C4 aldehydes), daily average [2, 12]: 0.58 gmoles/L/Hr | Linear/Branched Aldehyde Mole Ratio [2, 13]: 6.60 | Rate (C4 aldehydes), daily average [2, 13]: 0.41 gmoles/L/Hr | Metal Salt Solubility ([3]; Butyraldehyde, 60 °C): 1.4 Wt. % | Metal Salt Solubility ([3]; Heptanal, 80 °C): 3.8 Wt. % | Metal Salt Solubility ([3]; Nonanal, 80 °C): 0.9 Wt. % | Metal Salt Solubility ([3]; Propionaldehyde, 35 °C): 6.6 Wt. % | Metal Salt Solubility ([3]; Tridecanal, 80 °C): 0.5 Wt. % | Metal Salt Solubility ([3]; Valeraldehyde, 80 °C): 3.3 Wt. % | Metal Salt Solubility [4]: 25 Wt. %

O=S(=O)(O)c1cccc(P(c2ccccc2)c2ccccc2)c1 [TPPMS-Li, monosulfonated triphenylphosphine lithium salt]
Linear/Branched Aldehyde Mole Ratio ([1]; lithium salt): 6.3 | Reaction Rate (C4 aldehydes) ([1]; lithium salt): 0.35 Gmoles/L/Hr | Linear/Branched Aldehyde Mole Ratio [5, 14]: 30.34 | Rate (C5 aldehydes), daily average [5, 14]: 1.02 gmoles/L/Hr | Linear/Branched Aldehyde Mole Ratio [5, 15]: 11.20 | Rate (C5 aldehydes), daily average [5, 15]: 1.25 gmoles/L/Hr | Rate (C5 aldehydes), daily average ([5]; Texanol, day 4.8, 101 °C, CO 17, H2 52, C4H8 50): 1.19 gmoles/L/Hr | Linear/Branched Aldehyde Mole Ratio [5, 16]: 2.98 | Rate (C5 aldehydes), daily average [5, 16]: 1.27 gmoles/L/Hr | Linear/Branched Aldehyde Mole Ratio [5, 17]: 31.75 | Rate (C5 aldehydes), daily average [5, 17]: 1.28 gmoles/L/Hr | Linear/Branched Aldehyde Mole Ratio [5, 18]: 40.30 | Rate (C5 aldehydes), daily average [5, 18]: 1.28 gmoles/L/Hr | Linear/Branched Aldehyde Mole Ratio [5, 19]: 28.90 | Rate (C5 aldehydes), daily average [5, 19]: 1.30 gmoles/L/Hr | Linear/Branched Aldehyde Mole Ratio [5, 20]: 29.63 | Rate (C5 aldehydes), daily average [5, 20]: 1.27 gmoles/L/Hr | Linear/Branched Aldehyde Mole Ratio [5, 21]: 37.18 | Rate (C5 aldehydes), daily average [5, 21]: 1.27 gmoles/L/Hr | Linear/Branched Aldehyde Mole Ratio [5, 22]: 30.18 | Rate (C5 aldehydes), daily average [5, 22]: 1.21 gmoles/L/Hr | Metal Salt Solubility ([3]; Butyraldehyde, 60 °C, lithium salt): 0.5 Wt. % | Metal Salt Solubility ([3]; Heptanal, 80 °C, lithium salt): < 0.7 Wt. % | Metal Salt Solubility ([3]; Nonanal, 80 °C, lithium salt): < 0.5 Wt. % | Metal Salt Solubility ([3]; Propionaldehyde, 35 °C, lithium salt): 8.8 Wt. % | Metal Salt Solubility ([3]; Tridecanal, 80 °C, lithium salt): < 0.5 Wt. % | Metal Salt Solubility ([3]; Valeraldehyde, 80 °C, lithium salt): < 0.5 Wt. % | Metal Salt Solubility ([4]; lithium salt): 12 Wt. %

O=S(=O)(O)c1cccc(P(c2ccccc2)c2ccccc2)c1 [TPPMS-Ba, monosulfonated triphenylphosphine barium salt]
Linear/Branched Aldehyde Mole Ratio [1]: 4.1 | Reaction Rate (C4 aldehydes) [1]: 1.43 Gmoles/L/Hr | Linear/Branched Aldehyde Mole Ratio [6, 23]: 10.0 | Reaction Rate [6, 23]: 1.22 G moles/L/hr | Linear/Branched Aldehyde Mole Ratio [6, 24]: 9.4 | Reaction Rate [6, 24]: 0.45 G moles/L/hr | Linear/Branched Aldehyde Mole Ratio [6, 25]: 10.9 | Reaction Rate [6, 25]: 0.76 G moles/L/hr | Linear/Branched Aldehyde Mole Ratio [5, 26]: 6.91 | Rate (C5 aldehydes), daily average [5, 26]: 2.07 gmoles/L/Hr | Linear/Branched Aldehyde Mole Ratio [5, 27]: 7.10 | Rate (C5 aldehydes), daily average [5, 27]: 2.10 gmoles/L/Hr | Linear/Branched Aldehyde Mole Ratio [5, 28]: 7.12 | Rate (C5 aldehydes), daily average [5, 28]: 2.51 gmoles/L/Hr | Linear/Branched Aldehyde Mole Ratio [5, 29]: 7.03 | Rate (C5 aldehydes), daily average [5, 29]: 2.52 gmoles/L/Hr | Linear/Branched Aldehyde Mole Ratio [5, 30]: 6.32 | Rate (C5 aldehydes), daily average [5, 30]: 2.71 gmoles/L/Hr | Linear/Branched Aldehyde Mole Ratio [5, 31]: 6.02 | Rate (C5 aldehydes), daily average [5, 31]: 2.60 gmoles/L/Hr | Linear/Branched Aldehyde Mole Ratio [5, 32]: 6.16 | Rate (C5 aldehydes), daily average [5, 32]: 2.71 gmoles/L/Hr | Linear/Branched Aldehyde Mole Ratio [5, 33]: 6.01 | Rate (C5 aldehydes), daily average [5, 33]: 2.73 gmoles/L/Hr | Linear/Branched Aldehyde Mole Ratio [5, 34]: 6.20 | Rate (C5 aldehydes), daily average [5, 34]: 2.46 gmoles/L/Hr | Linear/Branched Aldehyde Mole Ratio [5, 35]: 6.14 | Rate (C5 aldehydes), daily average [5, 35]: 2.37 gmoles/L/Hr | Linear/Branched Aldehyde Mole Ratio [5, 36]: 5.85 | Rate (C5 aldehydes), daily average [5, 36]: 2.30 gmoles/L/Hr | Metal Salt Solubility ([3]; Butyraldehyde, 60 °C): 0.6 Wt. % | Metal Salt Solubility ([3]; Heptanal, 80 °C): 0.2 Wt. % | Metal Salt Solubility ([3]; Nonanal, 80 °C): 0.2 Wt. % | Metal Salt Solubility ([3]; Propionaldehyde, 35 °C): 0.5 Wt. % | Metal Salt Solubility ([3]; Tridecanal, 80 °C): 0.3 Wt. % | Metal Salt Solubility ([3]; Valeraldehyde, 80 °C): 0.1 Wt. % | Metal Salt Solubility [4]: 33 Wt. %
